From patent US10150804B2, “Compositions and methods for imaging cancer” (BRITISH COLUMBIA CANCER AGENCY BRANCH, priority 2014, dated 2018) come the findings set out here.

Like-named read-outs stand apart in the source and are kept apart here.

For one series, the target named is T1, sstr1 (Homo sapiens, UniProt P30872).
T1 construct: purchased PerkinElmer; host or cells: Chinese hamster ovary K1 cells (transfected)
Kind of series: standard filtration competitive binding assay, sstr1 membranes. Conditions: 0.2 nM 125I standard. The protocol: After successful synthesis, the activity of ^19F-AMBF3-TATE was examined in vitro. Membranes from Chinese hamster ovary K1 cells transfected with sstr1, sstr2, sstr3, sstr5, and [^125I]-Tyr-somatostatin-14 were obtained from PerkinElmer. […] Briefly, membranes ([…]) were incubated with the ^125I-labelled standard at a concentration of 0.05 nM for sstr2 or 0.2 nM for other subtypes. […] After incubation (37° C., 1 h), the wells were aspirated and washed 8 times with 50 mM ice-cold buffer (Tris-HCl, pH 7.4) over grade GF/B filters. The filters were removed and counted by a γ counter (Cobra II; Packard). Data were fitted to a 1-site competition model (GraphPad Prism 6.1 software) to calculate Ki.

Series [1] can be described thus: 19F-NMR kinetic analysis of solvolysis/defluoridation of AMBF3. Type of series: physicochemical. The protocol: Data are scaled 1000,000 min.
Series [2] relates to AR42J tumour-bearing mice. Conditions: excess competitor 69/71Ga-DOTATATE
Description: After labelling, imaging was undertaken. […] Rat pancreatic adenocarcinoma cells (10^7 AR42J cells) were freshly expanded in a mixture of phosphate-buffered saline and Matrigel (Corning) and inoculated subcutaneously in female immunocompromised mice (NOD SCID [non-obese diabetic severe combined immunodeficient] IL2r-γ-null, bred in house). The tumours were grown for 2 wk until they reached 5-7 mm in diameter. […] Sixty minutes after injection, the mice were anesthetized with isoflurane and euthanized by carbon dioxide. The organs were harvested, rinsed with saline, blotted dry, and collected in previously weighed tubes. The tubes containing the organs were counted in a Cobra-II γ counter. The tissue weight and associated count per minute were used to calculate the percentage injected dose per gram of tissue (% ID/g). Images were acquired using a multimodality PET/CT system (Inveon; Siemens).

T1 sequence (P30872 whole entry): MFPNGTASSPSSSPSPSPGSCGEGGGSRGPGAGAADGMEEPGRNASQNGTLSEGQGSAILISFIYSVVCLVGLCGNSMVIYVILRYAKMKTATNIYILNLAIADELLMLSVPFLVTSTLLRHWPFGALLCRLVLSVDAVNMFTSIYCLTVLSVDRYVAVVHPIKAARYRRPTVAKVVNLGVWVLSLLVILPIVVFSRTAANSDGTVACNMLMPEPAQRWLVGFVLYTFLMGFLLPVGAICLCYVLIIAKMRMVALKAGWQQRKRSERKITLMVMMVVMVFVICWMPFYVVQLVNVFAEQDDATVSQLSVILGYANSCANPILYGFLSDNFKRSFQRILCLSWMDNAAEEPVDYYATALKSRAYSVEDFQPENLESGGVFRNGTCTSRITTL

`C[C@@H](O)[C@H](NC(=O)[C@@H]1CSSC[C@H](NC(=O)[C@@H](Cc2ccccc2)NC(=O)Cn2cc(C[N+](C)(C)C[B-](F)(F)F)nn2)C(=O)N[C@@H](Cc2ccc(O)cc2)C(=O)N[C@H](Cc2c[nH]c3ccccc23)C(=O)N[C@@H](CCCCN)C(=O)N[C@@H]([C@@H](C)O)C(=O)N1)C(=O)O` [AMBF3-TATE]: the “displacement of binding to sstr1” value on sstr1 was “No significant displacement”. For the compound `C#CC[N+](C)(C)C[B-](F)(F)F` [alkynyl-AMBF3, N-propargyl-N,N-dimethyl-ammoniomethyltrifluoroborate], the half-life was 312 h in series [1] (19F NMR, read-out: solvolysis t1/2 (converted)) and 0.325 h in series [1] (19F-NMR, first-order fit (FIG. 10), read-out: half-life of defluoridation). As to ^18F-AMBF3-TATE, the “blocking efficiency (tumour uptake)” value in series [2] came to 97%.
